Measurements reported in ChEMBL document CHEMBL1201862, “PubChem BioAssay data set” (2004).
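48-hour exposure; five concentrations; linearly interpolated endpoints. GI50 = concentration required for 50% inhibition of growth.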 Activity calls are given as the source filed them. Rule as the data show it: active = GI50 up to about 1.1 µM and inactive = higher.

What was measured:
Assay in all cases: DTP human tumour cell line panel, 48 h
786-0 = system: 786-0
A498 = system: A498
A549 = system: A549
ACHN = system: ACHN
CAKI-1 = system: CAKI-1
CCRF-CEM = system: CCRF-CEM
COLO 205 = system: COLO 205
DLD-1 = system: DLD-1
DMS-273 = system: DMS-273
EKVX = system: EKVX
HCC 2998 = system: HCC 2998
HCT-116 = system: HCT-116
HCT-15 = system: HCT-15
HL-60 = system: HL-60
HOP-18 = system: HOP-18
HOP-62 = system: HOP-62
HT-29 = system: HT-29
IGROV-1 = system: IGROV-1
K562 = system: K562
KM-20L2 = system: KM-20L2
KM12 = system: KM12
LXFL 529 = system: LXFL 529
M14 = system: M14
M19-MEL = system: M19-MEL
MOLT-4 = system: MOLT-4
Malme-3M = system: Malme-3M
NCI-H226 = system: NCI-H226
NCI-H23 = system: NCI-H23
NCI-H460 = system: NCI-H460
NCI-H522 = system: NCI-H522
OVCAR-3 = system: OVCAR-3
OVCAR-4 = system: OVCAR-4
OVCAR-5 = system: OVCAR-5
OVCAR-8 = system: OVCAR-8
RPMI-8226 = system: RPMI-8226
SF-295 = system: SF-295
SF-539 = system: SF-539
SK-MEL-2 = system: SK-MEL-2
SK-MEL-5 = system: SK-MEL-5
SK-OV-3 = system: SK-OV-3
SN12C = system: SN12C
SNB-19 = system: SNB-19
SNB-75 = system: SNB-75
SNB-78 = system: SNB-78
SR = system: SR
SW-620 = system: SW-620
TK-10 = system: TK-10
U-251 = system: U-251
UACC-257 = system: UACC-257
UACC-62 = system: UACC-62
UO-31 = system: UO-31
DMS-114 = system: DMS-114
HOP-92 = system: HOP-92
LOX IMVI = system: LOX IMVI
RXF 393 = system: RXF 393
SF-268 = system: SF-268
SK-MEL-28 = system: SK-MEL-28
XF498 = system: XF498

With C/C(CN1C(=O)c2ccccc2C1=O)=N\NS(=O)(=O)c1ccc(C)cc1 the GI50 (786-0) was > 100000 nM (inactive), the GI50 (A498) was > 100000 nM (inactive) and the GI50 (A549) was > 100000 nM (inactive). The GI50 (ACHN) was > 100000 nM (inactive), the GI50 (CAKI-1) was > 100000 nM (inactive) and the GI50 (CCRF-CEM) was > 100000 nM (inactive). The GI50 (COLO 205) was > 100000 nM (inactive), the GI50 (DLD-1) was > 100000 nM (inactive) and the GI50 (DMS-273) was > 100000 nM (inactive). The GI50 (EKVX) was > 100000 nM (inactive), the GI50 (HCC 2998) was > 100000 nM (inactive) and the GI50 (HCT-116) was > 100000 nM (inactive). For the same compound, the GI50 (HCT-15) was > 100000 nM, the GI50 (HL-60) was > 100000 nM (inactive) and the GI50 (HOP-18) was > 100000 nM (inactive). The GI50 (HOP-62) was > 100000 nM (inactive), the GI50 (HT-29) was > 100000 nM (inactive) and the GI50 (IGROV-1) was > 100000 nM (inactive). For the same compound, the GI50 (K562) was > 100000 nM (inactive), the GI50 (KM-20L2) was > 100000 nM (inactive) and the GI50 (KM12) was > 100000 nM (inactive). For the same compound, the GI50 (LXFL 529) was > 100000 nM (inactive), the GI50 (M14) was > 100000 nM (inactive) and the GI50 (M19-MEL) was > 100000 nM (inactive). The GI50 (MOLT-4) was > 100000 nM (inactive), the GI50 (Malme-3M) was > 100000 nM (inactive) and the GI50 (NCI-H226) was > 100000 nM (inactive). For the same compound, the GI50 (NCI-H23) was > 100000 nM (inactive), the GI50 (NCI-H460) was > 100000 nM (inactive) and the GI50 (NCI-H522) was > 100000 nM (inactive). For the same compound, the GI50 (OVCAR-3) was > 100000 nM (inactive), the GI50 (OVCAR-4) was > 100000 nM (inactive) and the GI50 (OVCAR-5) was > 100000 nM (inactive). The GI50 (OVCAR-8) was > 100000 nM (inactive), the GI50 (RPMI-8226) was > 100000 nM (inactive) and the GI50 (SF-295) was > 100000 nM (inactive). The GI50 (SF-539) was > 100000 nM (inactive), the GI50 (SK-MEL-2) was > 100000 nM (inactive) and the GI50 (SK-MEL-5) was > 100000 nM (inactive). The GI50 (SK-OV-3) was > 100000 nM (inactive), the GI50 (SN12C) was > 100000 nM (inactive) and the GI50 (SNB-19) was > 100000 nM (inactive). The GI50 (SNB-75) was > 100000 nM (inactive), the GI50 (SNB-78) was > 100000 nM (inactive) and the GI50 (SR) was > 100000 nM (inactive). The GI50 (SW-620) was > 100000 nM (inactive), the GI50 (TK-10) was > 100000 nM (inactive) and the GI50 (U-251) was > 100000 nM (inactive). For the same compound, the GI50 (UACC-257) was > 100000 nM (inactive), the GI50 (UACC-62) was > 100000 nM (inactive) and the GI50 (UO-31) was > 100000 nM (inactive).

For CCN(CCCl)CCCNc1c2ccccc2nc2ccc(OC)cc12, the GI50 (786-0) was 114 nM (active), the GI50 (A498) was 1190 nM (inactive) and the GI50 (A549) was 232 nM (active). For the same compound, the GI50 (ACHN) was 149 nM (active), the GI50 (CAKI-1) was 95.9 nM (active) and the GI50 (CCRF-CEM) was 99.3 nM (active). For the same compound, the GI50 (COLO 205) was 96.4 nM (active), the GI50 (DLD-1) was 84 nM (active) and the GI50 (DMS-114) was 314 nM (active). For the same compound, the GI50 (DMS-273) was 59 nM (active), the GI50 (EKVX) was 1020 nM (active) and the GI50 (HCC 2998) was 535 nM (active). For the same compound, the GI50 (HCT-116) was 58.5 nM (active), the GI50 (HCT-15) was 257 nM and the GI50 (HL-60) was 39 nM (active). For the same compound, the GI50 (HOP-62) was 605 nM (active), the GI50 (HOP-92) was 133 nM (active) and the GI50 (HT-29) was 85.3 nM (active). The GI50 (IGROV-1) was 102 nM (active), the GI50 (K562) was 86.1 nM (active) and the GI50 (KM-20L2) was 181 nM (active). For the same compound, the GI50 (KM12) was 141 nM (active), the GI50 (LOX IMVI) was 129 nM (active) and the GI50 (LXFL 529) was 91.2 nM (active). The GI50 (M14) was 522 nM (active), the GI50 (M19-MEL) was 216 nM (active) and the GI50 (MOLT-4) was 15.8 nM (active). For the same compound, the GI50 (Malme-3M) was 603 nM (active), the GI50 (NCI-H226) was 67.8 nM (active) and the GI50 (NCI-H23) was 120 nM (active). The GI50 (NCI-H460) was 80.2 nM (active), the GI50 (NCI-H522) was 144 nM (active) and the GI50 (OVCAR-3) was 1100 nM (active). For the same compound, the GI50 (OVCAR-4) was 682 nM (active), the GI50 (OVCAR-5) was 344 nM (active) and the GI50 (OVCAR-8) was 85.7 nM (active). The GI50 (RPMI-8226) was 63.7 nM (active), the GI50 (RXF 393) was 215 nM (active) and the GI50 (SF-268) was 122 nM (active). The GI50 (SF-295) was 115 nM (active), the GI50 (SF-539) was 142 nM (active) and the GI50 (SK-MEL-28) was 743 nM (active). For the same compound, the GI50 (SK-MEL-2) was 418 nM (active), the GI50 (SK-MEL-5) was 388 nM (active) and the GI50 (SK-OV-3) was 1040 nM (active). The GI50 (SN12C) was 54.8 nM (active), the GI50 (SNB-19) was 1050 nM (active) and the GI50 (SNB-75) was 635 nM (active). For the same compound, the GI50 (SNB-78) was 357 nM (active), the GI50 (SR) was 15.8 nM (active) and the GI50 (SW-620) was 37.1 nM (active). The GI50 (TK-10) was 1010 nM (active), the GI50 (U-251) was 199 nM (active) and the GI50 (UACC-257) was 1160 nM (inactive). For the same compound, the GI50 (UACC-62) was 118 nM (active), the GI50 (UO-31) was 1290 nM (inactive) and the GI50 (XF498) was 116 nM (active).
